Assays:
T cells = test: T cell activation and proliferation assay (CFSE-labeled PBMCs plus tumor cells); format: cell-based, human
Experimental: T cell proliferation assay. Fresh PBMCs from healthy donors were labeled with […] CFSE (Life Technologies Corp., Carlsbad, Calif.) for 5 min at room temperature, followed by neutralization using PBS containing 5% FBS. Target cells were then incubated with labeled PBMCs under different conditions at 37° C. before analyzing the expression of surface activation markers and T cell proliferation at 24 hours and 96 hours.
HuA33-BsAb activated and induced cell cycle entry of fresh T cells.

SW1222 tumor = test: i.p. SW1222 tumor model with i.v. T cells; format: in vivo, mice; settings: 6 doses i.v. over 3 weeks, T cells weekly over 2 weeks
Experimental: (§1) For intraperitoneal (i.p.) tumor models, luciferase expressing LS174T-luc or SW1222-luc cells were resuspended in RPMI medium and injected intraperitoneally into DKO mice. Human effector cells were supplied as activated T cells and injected intravenously. Mice were treated with 2-3 weekly cycles of antibody-T cell-antibody regimen, with each component separated by 3-4 days. Growth of tumors was followed weekly by measuring luminescence signals on an IVIS Spectrum in vivo imaging system ([…]® Inc., Waltham, Mass.) after injection of 3.3 mg/mouse of luciferin. Luminescence was analyzed and quantified using Living Image Software ([…]®-Inc., Waltham, Mass.).
For the SW1222 cell line, tumors were planted intraperitoneally and treated with 6 doses of i.v. antibody over 3 weeks, and i.v. T cell weekly over 2 weeks. […] It is anticipated that additional treatment cycles will completely eradicate the growth of tumors, as in subcutaneous models.

LS174T tumor = test: i.p. LS174T-luc tumor model with i.v. activated T cells; format: in vivo, mice
Experimental: as §1
To simulate malignant ascites, a common occurrence in colon cancers, luciferase-expressing LS174T cells were planted intraperitoneally into DKO mice. When tumor growth was confirmed by luminescence, mice were randomized into different treatment groups, treated with no antibody group (tumor only), tumor+T cell only group (tumor+ATC), or i.v. huA33-BsAb (7 doses over 3 weeks), plus weekly T cell injections over 3 weeks. Treatment was started on day 5 after tumor implantation. All T cells were injected through retro-orbital route.

GPA33 = biological target: T1, GPA33 (Homo sapiens, UniProt Q99795); test: FACS staining of tumor cell lines; format: cell-based; settings: panel of GPA33(+) and GPA33(−) cell lines
T1 construct: endogenous in cells; host or cells: human colon cancer cell lines (e.g. LS174T, SW1222, Colo205) and gastric cancer cell line SNU16
T1 sequence (Q99795 22-319): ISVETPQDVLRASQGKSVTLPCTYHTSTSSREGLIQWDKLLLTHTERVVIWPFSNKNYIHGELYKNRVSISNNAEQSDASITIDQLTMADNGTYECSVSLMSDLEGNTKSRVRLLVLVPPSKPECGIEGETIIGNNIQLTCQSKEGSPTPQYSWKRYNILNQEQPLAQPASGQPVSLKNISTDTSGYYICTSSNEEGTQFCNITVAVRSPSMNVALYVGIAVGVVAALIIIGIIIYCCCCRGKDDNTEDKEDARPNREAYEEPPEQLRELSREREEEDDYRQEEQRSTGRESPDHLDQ
Description: (§2) Antibodies and flow cytometry. Antibodies anti-hCD25-PE, anti-CD69-PE, anti-hCD8-APC, anti-hCD45-PECy7, anti-hCD4-PE, anti-hCD4-BV421, anti-hCD62L-PercpCy5.5, anti-hPD1-BV421, anti-hCD45RO-PECy7, were purchased from BIOLEGEND® (San Diego, Calif.). Goat anti-human IgG-PE was purchased from SouthernBiotech (Birmingham, Ala.). Streptavidin-PE, anti-hCD4-APC and anti-hCD25-APC were purchased from BD Biosciences (San Jose, Calif.). All FACS analysis was done using FACSCalibur or LSRII system (BD Biosciences, San Jose, Calif.) and analyzed using FlowJo (FLOWJO, Ashland, Oreg.).
(§3) The avidities of huA33-BsAb towards GPA33 at both 25° C. and 37° C. were measured using GPA33 immobilized CM5 chips.

LS174T tumors = test: s.c. LS174T xenograft with s.c. PBMCs; format: in vivo, mice; settings: 6 doses over 3 weeks
Experimental: (§4) In vivo tumor therapy. For subcutaneous (s.c.) tumor models, LS174T, Colo205 or SNU16 cells were combined with fresh PBMCs at a 1:1 ratio, mixed with […]® (volume of cell:gel=1:2), and implanted (100 μl/mouse) at the flank of Balb/c Rag2^−/−IL2Rγ^−/− (DKO) mice (now commercially available from Taconic as CIEA BRG mice). Treatment started after confirmation of tumor presence with a BIW schedule at 100 μg/mouse and continued for 3-4 weeks. Tumor growth was monitored by weekly measurement of tumor volume using a caliper or a digital device Peira TM900 Scanner (Peira Scientific Instruments, Turnhout, Belgium).
HuA33-BsAb cured MSI tumor LSI74T in a s.c. xenograft model and suppressed tumor growth in an i.p. model. LS174T cells were mixed with PBMCs at a 1:1 ratio and implanted subcutaneously in DKO mice. […] Mice from tumor+PBMC group developed tumor ulceration and had to be euthanized.

Colo205 tumors = test: s.c. Colo205 xenograft with PBMCs; format: in vivo, mice
Experimental: as §4
HuA33-BsAb cured MSS tumor COLO205 in a s.c. xenograft model and suppressed tumor growth of metastatic MSS tumor SW1222. Two MSS colon cancer cell lines Colo205 and SW1222 were tested. For Colo205 cells, tumors were implanted subcutaneously with PBMCs as effector cells.

[1] = SEC-HPLC stability test (37° C. incubation, freeze-thaw); format: physicochemical
Experimental: SEC-HPLC analysis. Size and purity of huA33-BsAb was analyzed using HPLC system (Shimadzu Scientific Instruments Inc., Columbia, Md.). Monomeric species were identified using a molecular weight standard (Bio-Rad Laboratories, Hercules, Calif.) and percent monomer was calculated based on the relative area under curve (AUC) of different non-buffer peaks.
The huA33 antibody was reformatted into bispecific format by fusing scFv of humanized OKT3 to the C-terminus of light chain via a flexible GS linker (FIG. 1(A)). The DNA construct was used to establish a CHO-S stable cell line and huA33-BsAb was purified from the supernatant. Protein yield using protein A chromatography was 50 mg/L to 100 mg/L without extensive optimization. Similar yields were observed using EXPI293™ transient expression system (data not shown). One-step protein A purification routinely produced protein with purity above 90%, as measured by SEC-HPLC.

CD3 on T cell surface = biological target: T2, CD3 on T cell surface (Homo sapiens, UniProt P07766); test: FACS staining of activated T cells; format: cell-based
T2 construct: endogenous in cells
T2 sequence (P07766 23-207): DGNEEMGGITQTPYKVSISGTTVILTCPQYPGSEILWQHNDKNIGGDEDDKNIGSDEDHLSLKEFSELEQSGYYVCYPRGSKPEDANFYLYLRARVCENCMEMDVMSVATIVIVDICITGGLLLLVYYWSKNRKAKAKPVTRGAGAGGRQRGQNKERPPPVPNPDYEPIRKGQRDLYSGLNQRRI
T2 sequence (P09693 23-182 partner): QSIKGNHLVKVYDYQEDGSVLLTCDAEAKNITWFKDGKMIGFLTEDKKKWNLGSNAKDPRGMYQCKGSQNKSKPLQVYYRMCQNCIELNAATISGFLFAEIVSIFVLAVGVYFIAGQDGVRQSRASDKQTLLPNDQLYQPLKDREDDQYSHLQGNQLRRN
T2 sequence (P04234 22-171 partner): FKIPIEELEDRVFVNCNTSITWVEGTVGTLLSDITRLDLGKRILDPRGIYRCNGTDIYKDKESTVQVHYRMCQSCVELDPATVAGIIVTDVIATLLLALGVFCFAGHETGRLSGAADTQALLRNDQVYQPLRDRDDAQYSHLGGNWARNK
T2 sequence (P20963 22-164 partner): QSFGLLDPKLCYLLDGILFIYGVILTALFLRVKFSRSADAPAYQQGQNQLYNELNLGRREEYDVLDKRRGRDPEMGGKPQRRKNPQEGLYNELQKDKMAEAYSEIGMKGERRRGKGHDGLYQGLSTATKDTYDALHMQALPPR
Description: as §2, §3

For “huA33-BsAb: huA33 IgG with humanized OKT3 scFv fused to light chain C-terminus, N297A and K322A; SEQ ID NO: 19 and 21”, the “PD-1 upregulation on T cells” value (T cells; PBMCs + Colo205, 24 and 96 hours) was “PD-1 upregulation was observed after 24 hours and persisted until 96 hours”, the “T cell division by CFSE dye dilution” value (T cells; PBMCs + Colo205, 96 hours) was “observed in both CD4(+) and CD8(+) T cells after 96 hours” and the “T cell activation (upregulation of CD25 and CD69 markers)” value (T cells; PBMCs + Colo205, E:T 5, 1 μg/ml, 24 hours) was “caused activation of both CD4(+) and CD8(+) T cells”. For the same substance, the “T cell activation with GPA33(−) target cells” value (T cells; SKMEL5 target cells, 96 hours) was “did not activate T cells”, the “tumor growth and survival” value (SW1222 tumor) was “suppressed tumor growth and significantly prolonged mice survival” and the “tumor growth in the abdomen” value (LS174T tumor; i.v., 7 doses over 3 weeks, weekly T cells) was “significantly suppressed metastatic growth of LS174T tumor”. The “time all mice remained alive” value (LS174T tumor; without further treatment) was “at least 60 days”, the “FACS staining of cancer cell lines” value (GPA33) was “stained colon cancer cell lines and one gastric cancer cell line but not GPA33(−) neuroblastoma cell line IMR32, osteosarcoma cell line TC32 or melanoma cell line SKMEL5” and the “time mice remained tumor free” value (LS174T tumors) was “at least 120 days”. For the same substance, the tumor response (LS174T tumors) was “effectively cured the mice”, the tumor response (Colo205 tumors; 4 doses) was “completely eradicate Colo205 tumors” and the “time mice remained tumor free” value (Colo205 tumors; after a total of 6 doses) was “at least 4 months”. For the same substance, the “percentage of monomers after incubation” value ([1]; 37° C. for 4 weeks, SEC-HPLC) was “only a minimal decrease in the percentage of monomers”, the “SEC-HPLC profile after freeze-thaw” value ([1]; four cycles of freeze-thaw) was “did not cause noticeable changes in SEC-HPLC profile” and the “staining of activated T cells” value (CD3 on T cell surface) was “bound to CD3 on T cell surface”.
